According to PubChem BioAssay (NCI):
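Tested at 5 concentrations; 48 h exposure; 96-well plates; endpoints linearly interpolated, else capped at highest concentration. At the GI50, growth is halved. Definition used: TGI = concentration required for complete inhibition of growth.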

How the values were obtained:
Test in all cases: NCI-60 cell line screen, 48 h
[1] = system: A498 renal
[2] = system: A549 NSCLC
[3] = system: CAKI-1 renal
[4] = system: CCRF-CEM leukemia
[5] = system: HCC-2998 colon
[6] = system: HOP-92 NSCLC
[7] = system: LOX IMVI melanoma
[8] = system: NCI-H522 lung
[9] = system: SK-OV-3 ovarian
[10] = system: SW-620 colon

Compound	GI50 [1] [nM]	TGI [1] [µM]	GI50 [2] [µM]	TGI [2] [µM]	GI50 [3] [µM]	TGI [3] [µM]	GI50 [4] [µM]	TGI [4] [µM]	GI50 [5] [µM]	TGI [5] [µM]	GI50 [6] [µM]	TGI [6] [µM]	GI50 [7] [µM]	TGI [7] [µM]	GI50 [8] [µM]	TGI [8] [µM]	GI50 [9] [µM]	TGI [9] [µM]	GI50 [10] [µM]	TGI [10] [µM]
Cc1cc(/C=C2\SC(=Nc3ccccc3)N(C3CCCC3)C2=O)c(C)n1-c1ccc(Cl)cc1	295	> 100	> 100	> 100	> 100	> 100	> 100	> 100	> 100	> 100	> 100	> 100	> 100	> 100	> 100	> 100	> 100	> 100	> 100	> 100
O=c1ccn(C2OC(CO)C(O)C2O)c(=O)[nH]1 (stereo unspecified)		> 1000	> 1000	> 1000		> 1000	> 1000	> 1000	> 1000	> 1000	> 1000	> 1000	> 1000	> 1000		> 1000	> 1000	> 1000	> 1000	> 1000
O=C(Nc1ccc(Cl)cc1)Nc1ccc(Cl)c(Cl)c1	3050	7.94	4.58	> 100	2.96	> 100	2.25	7.8	3.9	44.5	1.62	5.46	3.39	> 100	4.15	> 100			3.95	> 100
COc1ccc2c(c1)sc1nc(-c3ccccc3)c(-c3ccsc3)n12	6260	> 100	5.02	> 100	5.04	> 100			4.86	93.1	9.89	> 100	5.25	> 100	2.99	36.8	3.48	64.6	3.84	> 100
COc1cc(/C=C/c2cc(C(F)(F)F)[nH]c(=O)n2)ccc1OCc1ccccc1F	1730	8.6	6.97	40.3	11.3	42.3	3.94	26.3	15.5	30.1			8.57	22	5.62	20.4	16.3	50.8	7.97	28.3
O=c1oc2ccccc2c(O)c1/C=N\c1nc(-c2ccccc2)cs1		> 100		> 100		12.2		9.74		> 100		25.2		23.6		5.71		> 100		16.2
CN1CCN(Cc2ccc(NC(=O)c3cncc(C#Cc4cnc(N)c5ccc(F)cc45)c3)cc2C(F)(F)F)CC1	902	3.92	2.04	6.46	1.1	4.57	0.865	16.4	1.7	5.98	0.989	5.58	1.01	4.27	1.86	6.53	1.03	3.81	1.3	4.83
